Measured values: US7662812B2, “Diazabicyclic aryl derivatives and their use as chinolinergic ligands at nicotinic acetylcholine receptors” (Neurosearch A/S, priority 2005, dated 2010)

Target: T1, α7-subtype of nicotinic receptors (Rattus norvegicus, UniProt Q05941)
T1 construct: Cerebral cortices from male Wistar rats (150-250 g) are homogenised; from tissue; host or cells: rat cerebral cortex membrane homogenate
Assay: In vitro inhibition of 3H-α-bungarotoxine binding in rat brain
Conditions: rat cerebral cortex homogenate, 3H-α-bungarotoxine 2 nM, 2 hours at 37° C.

T1 sequence (Q05941 23-502): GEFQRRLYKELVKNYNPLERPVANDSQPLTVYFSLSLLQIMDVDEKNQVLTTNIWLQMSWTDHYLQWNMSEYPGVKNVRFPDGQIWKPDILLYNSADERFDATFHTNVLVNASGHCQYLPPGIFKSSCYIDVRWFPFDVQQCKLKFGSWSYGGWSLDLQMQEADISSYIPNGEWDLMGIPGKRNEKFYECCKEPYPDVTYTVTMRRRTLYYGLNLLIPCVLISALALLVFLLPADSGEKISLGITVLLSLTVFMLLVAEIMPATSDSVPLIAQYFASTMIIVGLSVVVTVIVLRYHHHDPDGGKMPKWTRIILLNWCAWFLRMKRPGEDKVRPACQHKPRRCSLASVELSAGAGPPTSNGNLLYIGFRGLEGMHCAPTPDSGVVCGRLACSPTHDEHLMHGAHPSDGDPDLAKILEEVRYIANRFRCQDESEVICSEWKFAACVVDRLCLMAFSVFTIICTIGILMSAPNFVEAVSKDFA

## CN1C2CCC1CN(c1ccc(C#Cc3ccccc3)nn1)C2 [Compound B1, 8-Methyl-3-(6-phenylethynyl-pyridazin-3-yl)-3,8-diaza-bicyclo[3.2.1]octane]
  IC50: 470 nM
